Where two headings read alike, the source gives them in different places.
Test: Migration through porcine skin tissue under electric field (modified Franz apparatus)
Experimental: The effect of an electric field was explored on migration through the subcutis using fresh porcine abdominal skin tissue obtained from local abattoirs. To do this, a modified Franz apparatus was developed that could test up to 12 samples simultaneously (FIGS. 12A, 12B). Full-thickness porcine skin tissue plugs that were three cm in diameter were placed subcutis-down in individual wells over reservoirs containing cathodes below 2 ml of test solution. The device was then inverted to run the experiments.
Tissue and test solution were maintained at 37° C. using a heat lamp and monitored with a digital thermometer probe placed between the plexiglass plates, adjacent to the tissues. Anodes were inserted into conductive paste placed on the epidermal surface. Utilizing multiple electrophoresis power sources, 10V or 20V of electromotive potential was then run across each cathode-anode pair for one hour.
We tested the apparatus using a solution of bromophenol blue (BPB), a 0.67 kDa dye that appears blue above pH 4.6 and carries a negative charge near neutral pH similar to that of insulin. […]
One microscope slide was stained with H&E; an adjacent slide was stained with a Guinea pig polyclonal antibody (Ab) (Abcam ab7842), which was detected by a goat anti-Guinea pig polyclonal IgG H&L (Alexa Fluor® 594; Abcam ab150188).

Row | Compound | migration through porcine skin layers with voltage applied (10 V, 37° C., about one hour, test solution on subcutaneous surface) | migration through porcine skin layers with voltage applied
1 | O=S1(=O)OC(c2cc(Br)c(O)c(Br)c2)(c2cc(Br)c(O)c(Br)c2)c2ccccc21 [bromophenol blue] | dye penetrated through the subcutis in voltage-treated tissue | 
2 | Cy5-insulin: human insulin conjugated to cyanine-5-NHS-ester fluorophore (P/N IS1-S5-1, Nanocs, Inc.) |  | migration of the fluorescence-tagged insulin through the full skin thickness
